≈ marks a conversion by molar mass, not a printed value. Read-outs that look alike come from different tables or passages of the source.
Legend:
Assay type in all cases: cell-based
[1] = test system: Methicillin-resistant Staphylococcus aureus NRS384 (MRSA USA300); assay: MIC broth microdilution, initial screening
Procedure: The minimum inhibitory concentrations (MICs) of the tested compounds and control drugs (linezolid, vancomycin, gentamicin (antibiotics) and fluconazole and 5-fluorocytosine (5-FC) (antifungal drugs)) were determined using the broth microdilution method, according to guidelines outlined by the Clinical and Laboratory Standards Institute (CLSI, Clinical and Laboratory Standards Institute, Methods for antimicrobial susceptibility testing of anaerobic bacteria; approved standard, M11-A8. 8th ed., 2012; CLSI, Clinical and Laboratory Standards Institute. M27-A3 Reference Method for Broth Dilution Antifungal Susceptibility Testing of Yeasts; Approved Standard—Third Edition, Wayne, Pa., 2008) against clinically-relevant bacterial (methicillin-resistant Staphylococcus aureus (MRSA), Escherichia coli, and C. difficile strains) and fungal (Candida albicans) strains. S. aureus and E. coli were grown aerobically overnight on tryptone soy agar plates at 37° C. C. difficile was grown anaerobically on brain heart infusion supplemented agar at 37° C. for 48 hours. C. albicans was grown aerobically overnight on yeast peptone dextrose (YPD) agar plate at 35° C. Afterwards, a bacterial solution equivalent to 0.5 McFarland standard was prepared and diluted in cation-adjusted Mueller-Hinton broth (CAMHB) (for S. aureus and E. coli) to achieve a bacterial concentration of about 5×10^5 CFU/mL. C. difficile was diluted in brain heart infusion supplemented broth, supplemented with yeast extract, hemin and vitamin K to achieve a bacterial concentration of about 5×10^5 CFU/mL. C. albicans was diluted in Roswell Park Memorial Institute (RPMI 1640) medium with glutamine and without bicarbonate (GIBCO by Life Technologies, Green Island, N.Y., USA) which was buffered to pH 7.0 with 0.165 M of [3-(N-morpholino) propanesulfonic acid] (MOPS) (DOT Scientific Inc., Burton, Mich., USA) to achieve a fungal concentration of about 1.5×10^3 CFU/mL. Compounds and control drugs were added in the first row of the 96-well plates and serially diluted with the corresponding media containing bacteria. Plates were then incubated aerobically at 37° C. for 18-20 hours (for S. aureus and E. coli). C. difficile was incubated anaerobically at 37° C. for 48 hours. C. albicans was incubated aerobically at 37° C. for 24 hours.
The minimum inhibitory concentrations (MICs) of the tested compounds and control drugs; linezolid, vancomycin, gentamicin (antibiotics) and fluconazole and 5-fluorocytosine (5-FC) (antifungal drugs) were determined using the broth microdilution method, according to guidelines outlined by the Clinical and Laboratory Standards Institute (CLSI)^1, 2, 3 against clinically-relevant bacterial (methicillin-resistant Staphylococcus aureus (MRSA), Escherichia coli and Clostridium difficile strains) and fungal (Candida albicans) strain. S. aureus and E. coli were grown aerobically overnight on tryptone soy agar plates at 37° C. C. difficile was grown anaerobically on brain heart infusion supplemented agar at 37° C. for 48 hours. C. albicans was grown aerobically overnight on yeast peptone dextrose (YPD) agar plate at 35° C. Afterwards, a bacterial solution equivalent to 0.5 McFarland standard was prepared and diluted in cation-adjusted Mueller-Hinton broth (CAMHB) (for S. aureus and E. coli) to achieve a bacterial concentration of about 5×10^5 CFU/mL. C. difficile was diluted in brain heart infusion supplemented broth, supplemented with yeast extract, hemin and vitamin K to achieve a bacterial concentration of about 5×10^5 CFU/mL. C. albicans was diluted in Roswell Park Memorial Institute (RPMI 1640) medium with glutamine and without bicarbonate (GIBCO by Life Technologies, Green Island, N.Y., USA) which was buffered to pH 7.0 with 0.165 M of [3-(N-morpholino) propanesulfonic acid]

[2] = test system: Cephalosporin-resistant Streptococcus pneumoniae ATCC-15916; assay: MBC by plating from MIC wells
Excerpt: (§1) Based upon the initial results obtained, the active compounds were further screened against additional clinical isolates of methicillin-sensitive S. aureus (MSSA), methicillin-resistant S. aureus (MRSA), vancomycin-resistant S. aureus (VRSA), Staphylococcus epidermidis, vancomycin-resistant Enterococcus faecium (VRE), vancomycin-resistant Enterococcus faecalis (VRE) and Streptococcus pneumoniae, as presented in Table 2. Additionally, we examined whether the compounds were bacteriostatic (inhibit bacteria from growing) or bactericidal (kill bacteria) by determining the minimum bactericidal concentration (MBC). The MBC was determined by plating 5 μL from each well where no growth was present (in the MIC plates) onto tryptic soya agar plates and incubating plates at 37° C. for 24 hours. The MBC was categorized as the lowest concentration that generated a 99.9% reduction in bacterial colony-forming units (Table 3).

[3] = test system: Listeria monocytogenes ATCC-19111; assay: MBC by plating from MIC wells
Excerpt: as §1

[4] = test system: Methicillin-sensitive Staphylococcus aureus (MSSA NRS-107); assay: MBC by plating from MIC wells; conditions: read-out: MBC MSSA NRS-107
Excerpt: as §1

[5] = test system: Staphylococcus epidermidis (NRS-101); assay: MBC by plating from MIC wells
Excerpt: as §1

[6] = test system: Vancomycin-resistant Enterococcus fecalis ATCC-51299 (VRE ATCC-51299); assay: MBC by plating from MIC wells; conditions: read-out: MBC VRE ATCC-51299
Excerpt: as §1

[7] = MRSA NRS384 (USA300), broth microdilution, 18-20 hours, read-out: minimum inhibitory concentration (MIC) S. aureus (MRSA USA300)
[8] = ATCC15916, 99.9% reduction in CFU, read-out: MBC S. pneumoniae ATCC-15916
[9] = ATCC19111, 99.9% reduction in CFU, read-out: MBC L. monocytogenes ATCC-19111
[10] = NRS101, 99.9% reduction in CFU, read-out: MBC S. epidermidis NRS 101
[11] = read-out: minimum inhibitory concentration (MIC) S. aureus (MRSA USA300), MRSA NRS384 (USA300), broth microdilution, 18-20 hours

Row | Structure (SMILES) | MIC [1, 7] [µg/mL] | MBC [2, 8] [µg/mL] | MBC [3, 9] [µg/mL] | MBC ([4]; 99.9% reduction in CFU) [µg/mL] | MBC [5, 10] [µg/mL] | MBC ([6]; 99.9% reduction in CFU) [µg/mL] | MIC [1, 11] [µg/mL] | MIC ([1]; read-out: minimum inhibitory concentration (MIC) S. aureus (MRSA USA300)) [µg/mL] | MBC ([2]; ATCC15916, read-out: MBC S. pneumoniae ATCC-15916) [µg/mL] | MBC ([3]; ATCC19111, read-out: MBC L. monocytogenes ATCC-19111) [µg/mL] | MBC [4] [µg/mL] | MBC ([5]; NRS101, read-out: MBC S. epidermidis NRS 101) [µg/mL] | MBC [6] [µg/mL]
1 | CC(=O)NC[C@H]1CN(c2ccc(N3CCOCC3)c(F)c2)C(=O)O1 [Linezolid, reference compound] | 1 (≈ 2.96 µM) | 32 (≈ 94.9 µM) | 32 (≈ 94.9 µM) | 16 (≈ 47.4 µM) | 8 (≈ 23.7 µM) | 16 (≈ 47.4 µM) | – | – | – | – | – | – | –
2 | O=C(Nc1cccc(Nc2ccc(Cl)nn2)c1)Nc1ccc(Cl)c(Cl)c1 [MY14, 1-(3-((6-chloropyridazin-3-yl)amino)phenyl)-3-(3,4-dichlorophenyl)urea] | – | 64 (≈ 157 µM) | > 64 | 8 (≈ 19.6 µM) | 64 (≈ 157 µM) | > 64 | – | – | – | – | – | – | –
3 | O=C(Nc1ccc(-c2ccc(=O)[nH]n2)cc1)Nc1ccc(Cl)c(Cl)c1 [MY21, 1-(3,4-dichlorophenyl)-3-(4-(6-oxo-1,6-dihydropyridazin-3-yl)phenyl)urea] | – | 4 (≈ 10.7 µM) | 0.5 (≈ 1.33 µM) | 4 (≈ 10.7 µM) | 4 (≈ 10.7 µM) | 16 (≈ 42.6 µM) | 0.5 to 1 (≈ 1.33 to 2.67 µM) | – | – | – | – | – | –
4 | O=C(Nc1ccc(Oc2ccc(=O)[nH]n2)cc1)Nc1ccc(Cl)c(Cl)c1 [MY24, 1-(3,4-dichlorophenyl)-3-(4-((6-oxo-1,6-dihydropyridazin-3-yl)oxy)phenyl)urea] | – | 64 (≈ 164 µM) | 64 (≈ 164 µM) | 16 (≈ 40.9 µM) | 8 (≈ 20.4 µM) | > 64 | 0.5 to 1 (≈ 1.28 to 2.56 µM) | – | – | – | – | – | –
5 | O=C(Nc1ccc(Oc2ccc(=O)[nH]n2)cc1)Nc1ccc(Cl)c(C(F)(F)F)c1 [MY31, 1-(4-chloro-3-(trifluoromethyl)phenyl)-3-(4-((6-oxo-1,6-dihydropyridazin-3-yl)oxy)phenyl)urea] | – | 4 (≈ 9.42 µM) | > 64 | 2 (≈ 4.71 µM) | 1 (≈ 2.35 µM) | > 64 | 0.5 to 1 (≈ 1.18 to 2.35 µM) | – | – | – | – | – | –
6 | CNC(=O)c1cc(Oc2ccc(NC(=O)Nc3ccc(Cl)c(C(F)(F)F)c3)cc2)ccn1 [Sorafenib, reference compound] | 4 (≈ 8.61 µM) | > 64 | > 64 | > 64 | > 64 | > 64 | – | – | – | – | – | – | –
7 | CN[C@H](CC(C)C)C(=O)N[C@H]1C(=O)N[C@@H](CC(N)=O)C(=O)N[C@H]2C(=O)N[C@H]3C(=O)N[C@H](C(=O)N[C@H](C(=O)O)c4cc(O)cc(O)c4-c4cc3ccc4O)[C@H](O)c3ccc(c(Cl)c3)Oc3cc2cc(c3O[C@@H]2O[C@H](CO)[C@@H](O)[C@H](O)[C@H]2O[C@H]2C[C@](C)(N)[C@H](O)[C@H](C)O2)Oc2ccc(cc2Cl)[C@H]1O [Vancomycin, reference compound] | – | – | – | – | – | – | – | 1 (≈ 0.69 µM) | 1 (≈ 0.69 µM) | 2 (≈ 1.38 µM) | 2 (≈ 1.38 µM) | 2 (≈ 1.38 µM) | 64 (≈ 44.2 µM)

From patent US11648248B1 (King Abdulaziz University, priority 2022, dated 2023)
